How the values were obtained:
[1] = test system: snapbean plants; experiment: Defoliation of snapbean plants, foliar spray (Example VI, Table C); format: in vivo, Phaseolus vulgaris var. Cranberry; settings: Phaseolus vulgaris, foliar spray, 96 hours after treatment, read-out: Percent Defoliation; for pest or weed control at 280.212 g/ha: Rate 0.25 Pounds per Acre; for pest or weed control at 560.425 g/ha: Rate 0.50 Pounds per Acre
Method: Solutions of the test compounds and compositions identified in Table C below were prepared by dissolving the compounds in acetone/water (50:50 volume/volume) containing 0.1 percent volume/volume of Triton X-100 surfactant commercially available from Rhom and Haas Company, Philadelphia, Pennsylvania. As detailed below, these solutions of the test compounds and compositions were applied to snapbean plants at a concentration of 0.25 pounds of each active ingredient per acre (0.28 kg/ha) or 0.50 pounds of each active ingredient per acre (0.56 kg/ha). The compositions were applied to the snapbean plants as a mixture. Ethephon is commercially available from Union Carbide Agricultural Products Company, Inc., Research Triangle Park, North Carolina.
Into 13.5 centimeter diameter plastic pots containing a potting soil mix, i.e., one-third sandy loam soil, one-third peat moss and one-third perlite by volume, were sown three snapbean seeds (Phaseolus vulgaris var. Cranberry). Five to seven days after planting, the plants were thinned to one plant per pot. Ten to fourteen days after planting at the time of full expansion of the primary leaves, each concentration of the test compounds and compositions identified in […] (each pot sprayed with a volume equivalent to 180 gallons per acre) - i.e. 1683 l/ha was applied to three snapbean plants as a foliar spray by use of an aspirated spray apparatus set at 10 psig air pressure (517 mmHg). As a control, a water-acetone solution containing no test compound or composition was also sprayed on three snapbean plants. When dry, all or the plants were placed in a greenhouse at a temperature of 80°F ± 5°F (27°C ± 3°C) and humidity of 50 percent ± 5 percent. At 96 hours after treatment, percent defoliation of the snapbean plants was determined by visual observation. The values obtained For the control and each test compound and composition were averaged to obtain the results in Table C.

[2] = test system: snapbean plants; experiment: Abscission of snapbean plant leaves with ethylene gas exposure (Example XVII, Table N); format: in vivo, Phaseolus vulgaris var. Cranberry; settings: Concentration 0.1 ppm ethylene gas

O=C(O)C1(C(=O)Nc2cc(Cl)c(Cl)cc2Cl)CC1 [Compound 112]
pest or weed control at 280.212 g/ha [1]: 0%
pest or weed control at 560.425 g/ha [1]: 0%

O=C(O)C1(C(=O)Nc2cc(Cl)ccc2Cl)CC1 [Compound 113]
pest or weed control at 280.212 g/ha [1]: 0%
pest or weed control at 560.425 g/ha [1]: 0%

O=C(O)C1(C(=O)Nc2ccc(Cl)cc2Cl)CC1 [Compound 114]
pest or weed control at 280.212 g/ha [1]: 0%
pest or weed control at 560.425 g/ha [1]: 0%

O=C(O)C1(C(=O)Nc2ccc(Cl)cc2F)CC1 [Compound 115]
pest or weed control at 280.212 g/ha [1]: 0%
pest or weed control at 560.425 g/ha [1]: 0%

O=C(O)C1(C(=O)Nc2ccc(Cl)cc2)CC1 [Compound 116]
pest or weed control at 280.212 g/ha [1]: 0%
pest or weed control at 560.425 g/ha [1]: 0%

O=C(O)C1(C(=O)Nc2ccc(Br)cc2)CC1 [Compound 117]
pest or weed control at 280.212 g/ha [1]: 0%
pest or weed control at 560.425 g/ha [1]: 0%

O=C(O)C1(C(=O)Nc2ccc(Br)cc2Br)CC1 [Compound 120]
pest or weed control at 280.212 g/ha [1]: 0%
pest or weed control at 560.425 g/ha [1]: 0%

O=C(O)C1(C(=O)Nc2ccc(Br)cc2Cl)CC1 [Compound 121]
pest or weed control at 280.212 g/ha [1]: 0%
pest or weed control at 560.425 g/ha [1]: 0%

O=C(O)C1(C(=O)Nc2ccc(Cl)cc2Br)CC1 [Compound 122]
pest or weed control at 280.212 g/ha [1]: 0%
pest or weed control at 560.425 g/ha [1]: 0%

O=C(O)C1(C(=O)Nc2ccc(Br)c(Cl)c2)CC1 [Compound 123]
pest or weed control at 280.212 g/ha [1]: 0%
pest or weed control at 560.425 g/ha [1]: 0%

C=C [Ethylene Gas, ethylene, reference compound]
Percent Abscission 48 Hours ([2]; 48 Hours): 0%
Percent Abscission 96 Hours ([2]; 96 Hours): 0%
